Measured values reported in US4670469A, “Hydroxamic acid and pharmaceutical preparations containing the same” (VEB Arzneimittelwerk Dresden, priority 1983, dated 1987).

What was measured:
guinea pig trachia = experiment: Carbachol-induced spasm of guinea pig trachea; details: Cavia porcellus; spasm triggered by 3.9 μM carbachol; read-out: active substance concentration at which strong to very strong dilatation was clearly determinable
Excerpt: The testing of the compounds for antiasthmatic activity follows on isolated lung strips and isolated tracheal rings from guinea pigs according to measuring methods known from the literature (supra) in modified form. The measurements follow in thermostatically controlled organ bath, isotonically using a contraction measuring arrangement with lift receiver, measuring coil, measuring amplifier (inductive measurement with the aid of a high frequency resonant circuit). The gasification follows with air. The suspension solution has the following composition: 39.46 g NaCl, 2.2 g KCl, 6.07 g Tris, 1.0 g CaCl2, 9.9 g glucose, 1.0 ml saturated MgCl2 -solution, 43 ml 1N HCl; pH 7.4.
(b) Activity on the carbachol-induced spasm of guinea pig trachia
The spasms are triggered by 3.9 μM carbachol.

thrombocyte aggregation = experiment: Arachidonic acid-induced thrombocyte aggregation in thrombocyte-rich plasma; assay type: cell-based, humans; details: Homo sapiens; 0.8 mM arachidonic acid; concentration giving total restraint of aggregation
Excerpt: Since with the new medicines the restraints of lipoxygenase has been identified as a molecular type of attack, also their influence on the thrombocyte-aggregation has been tested. The essential role of the lipoxygenase pathway for irreversibility of the thrombocyte aggregation is now known. (C. E. Dutilh et al. Prostaglandins and Medicine 6, 111 (1981)). The key role is attributed to the irreversibility of the thrombocyte aggregation in the pathogenesis of thrombotic illnesses. […] In the experiments, the thrombocyte aggregation was triggered either by means of arachidonic acid or by means of platelet activation factor (PAF-Acether).
The testing of the compounds for antithrombotic and thrombolytic activity follows in authentic cell systems of humans in vitro. Thrombocyte-rich plasma from the blood of healthy donors is obtained by centrifugation at 1,000×g. The measurement of the thrombocyte aggregation follows by means of an aggregometer based upon diffuse light scattering or light absorption of the produced cell aggregate. The thrombocyte-rich plasma is pre-incubated at 37° C. for 3 minutes with the active substance or substances; thereafter the thrombocyte aggregation is triggered through the addition of either 0.8 mM arachidonic acid or 1 μM platelet activation factor (PAF-acether). The preparations are then stirred with a velocity of 800 rpm. Indeed according to the employed active substance concentration there occurs either a strong delay or a complete inhibition of the thrombocyte aggregation.

[1] = test system: carrageenin edema of rat paws; experiment: Inhibition of carrageenin edema of rat paws; assay type: in vivo; details: 200 mg/kg perorally, rats
Description: The inflammation-inhibiting activity of the compounds of Formula I is expressed, among others, by an inhibition of carrageenin edema in rat paws (see Example 9).
The carrageenin edema is employed in international literature as a model system for inflammation-triggering (prophlogistic) procedures, and offers the possibility of in vivo testing of compounds for inflammation-inhibiting (antiphlogistic) activity.
2(2'-naphthoxy)-acethydroxamic acid is supplied to 10 rats perorally in a dose of 200 mg/kg body weight with simultaneous delivery of 0.1 ml 1% carrageenin solution per animal. The extent of the paw edema is measured hourly after the application, and compared with the control group.

## O=C(COc1ccc2ccccc2c1)NO [2(2'-naphthoxy)-acethydroxamic acid]
Guinea pig trachia
  minimal effective concentration: 50 µM
Thrombocyte aggregation
  IC100: 60 µM
[1]; 1 h
  Restraint (%) of carrageenin edema: 27.3%
[1]; 2 h
  Restraint (%) of carrageenin edema: 27.3%
[1]; 3 h
  Restraint (%) of carrageenin edema: 20.2%
[1]; 4 h
  Restraint (%) of carrageenin edema: 35.3%
[1]; 5 h
  Restraint (%) of carrageenin edema: 21.4%
